Data: PMC7160673, “A Degenerate Peptide Library Approach to Reveal Sequence Determinants of Methyllysine-Driven Protein Interactions” (Frontiers in Cell and Developmental Biology, 2020)
Where no end group is shown, it is not given here. Me2a = asymmetric dimethyl on Arg; Peg = not defined here

Key:
Type in all cases: binding
CST 9733 (anti-H3K27me3) = assay: Histone peptide microarray, CST 9733; conditions: histone peptide array signal normalized to the highest peptide average per subarray, hits; CST 9733 LOT:14 dilution 1:5,000
Procedure: (§1) Peptide microarrays were fabricated using an Aushon 2470 microarrayer and used as described ([Cornett et al., 2017]) with the following modifications. Protein and antibody hybridization steps were performed in buffer containing 25 mM HEPES pH 7.5, 100 mM NaCl, 0.5% BSA (w/v), and 0.1% NP-40. Slides were washed 3 × 5 min in PBS supplemented with 0.1% Tween-20 between each hybridization step. Antibodies used were primary anti-GST (Sigma #7781, 1:2,000 dilution) and an AlexaFluor 647-labeled secondary antibody (Life Technologies A-21245, 1:5,000 dilution). […] Full lists of peptides queried by array analysis are in Supplementary Table S2.

[1] = tested on: Active Motif #39161, anti-H3K9me3; assay: Histone peptide microarray, Active Motif 39161; conditions: Active Motif 39161 (anti-H3K9me3) hits
Procedure: as §1

53BP1 TTD = assay: Histone peptide microarray, 53BP1 TTD; conditions: 53BP1 TTD hits, average signal per peptide
Procedure: as §1

[2] = tested on: Abcam #ab8895, anti-H3K4me1; assay: Histone peptide microarray, Abcam ab8895; conditions: Abcam ab8895 (anti-H3K4me1) hits, average signal per peptide
Procedure: as §1

[3] = tested on: Millipore #07-449, anti-H3K27me3; assay: Histone peptide microarray, Millipore 07-449; conditions: Millipore 07-449 (anti-H3K27me3) hits, average signal per peptide
Procedure: as §1

[4] = tested on: ABClonal #A2355, anti-H3K4me1; assay: Histone peptide microarray, ABclonal A2355; conditions: Abclonal A2355 (anti-H3K4me1) hits
Procedure: as §1

Substance	Avg Signal (CST 9733 (anti-H3K27me3))	Avg Signal [1]	Avg Signal (53BP1 TTD)	Avg Signal [2]	Avg Signal [3]	Avg Signal [4]
ACitTKQTARKSTGGKAPRKQL-K(Biot)-NH2 [Peptide H3.1Cit2]	0.005497	0.002403	0.1308	0.01656	–	–
ARTK(Me3)QTARKSTGGK(Ac)APRK(Ac)QL-K(Biot)-NH2 [H3.1K4me3K14acK18ac]	0.006975	0.0136	0.09432	–	0.01453	–
ATKAARKSAPATGGVK(Ac)KPHRYRPG-GK(Biotin)-OH [Peptide H3.1K36ac]	–	0.009457	–	–	0.004604	0.001664
KSAPSTGGVK(Me3)KPHRYKPGT-G-K(Biot)-NH2 [yH3K36me3]	0.0003217	–	0.1137	–	–	–
ARTKQTAR(Me2a)KSTGGKAPRKQL-Peg-Biot (chain 2 KSTGGKAPRKQL-{Peg-Biot}; not fully specified; reading uncertain) [Peptide H3.1R8me2a]	–	0.01209	–	0.06138	–	0.000963
PEPAK(Me3)SAPAPKKGSKKAVTKAQKK-Peg-Biot [Peptide H2BK5me3]	0.00351	0.03906	0.04404	–	0.1635	–
Ac-SGRGKGGK(Ac)GLGK(Ac)GGAKRHRKVLR-Peg-Biot [Peptide H4K8acK12ac]	0.0001351	0.0006444	–	0.002906	0.006396	–
KSAPSTGGVK(Me)KPHRYRPGT-G-K(Biot)-NH2 [Peptide H3.3K36me1]	0.0007823	0.0005946	–	0.003496	0.009576	–
SGRGK(Ac)QGGK(Ac)ARAK(Ac)AK(Ac)TR-Peg-Biot [H2AK5acK9acK13acK15ac(noN-ac)]	6.218e-5	–	0.2522	–	–	–
ARTKQpTARK(Me3)STGGKAPRKQL-K(Biot)-NH2 [Peptide H3.1T6pK9me3]	0.01471	0.3154	0.226	–	0.02132	–
AR(Me2a)TK(Me3)QTARK(Ac)pSTGGK(Ac)APRK(Ac)QL-K(Biot)-NH2 [H3.1R2me2aK4me3K9acS10pK14acK18ac]	0.001633	0.01104	0.02248	–	0.0008355	–
Ac-SGRGKGGKGLGK(Ac)GGAKRHRK(Ac)VLR-Peg-Biot [Peptide H4K12acK20ac]	0.0004147	0.009155	–	0.005228	0.007438	–
ARTK(Me3)QpTARK(Ac)STGGK(Ac)APRK(Ac)QL-K(Biot)-NH2 [H3.1K4me3T6pK9acK14acK18ac]	0.004429	0.005164	0.03157	–	0.0001463	–
H3.1.1(1-32)	–	–	–	0.3398	0.003069	0.04529
ACitTK(Me3)QTARKSTGGKAPRKQL-K(Biot)-NH2 [H3.1Cit2K4me3]	0.00216	0.009245	0.1746	–	0.01263	–
ARTK(Me3)QpTARKSTGGKAPRKQL-K(Biot)-NH2 [Peptide H3.1K4me3T6p]	0.001818	0.02043	0.1846	–	0.009429	–
AR(Me2s)TK(Me3)QTARKSTGGKAPRKQL-K(Biot)-NH2 [H3.1R2me2sK4me3]	0.00218	0.01035	0.1898	–	0.0135	–
Ac-SGCitGK(Ac)QGGKARAKAKTR-Peg-Biot [Peptide H2ACit3K5ac]	1.355e-5	–	0.009599	–	–	–
AR(Me)TK(Me3)QTARK(Ac)STGGK(Ac)APRK(Ac)QL-K(Biot)-NH2 [H3.1R2me1K4me3K9acK14acK18ac]	0.009005	0.006911	0.04917	0.01244	0.05381	–
ARTK(Me3)QTARKSTGGK(Ac)APRKQL-K(Biot)-NH2 [H3.1K4me3K14ac]	0.004624	0.009793	0.1175	0.0003256	0.02658	–
ARTK(Me3)QTARK(Ac)STGGKAPRK(Ac)QL-K(Biot)-NH2 [H3.1K4me3K9acK18ac]	0.009868	0.01916	0.0915	–	0.05409	–
